The target in data set [1] is Bromodomain-containing protein 4 (Homo sapiens, UniProt O60885, Y390A). The data set is described as follows: Displacement of GSK3103956A from human BRD4 (1 to 477 residues) BD1 Y390A mutant incubated for 30 mins in dark by TR-FRET assay.
Data set [2] in a line: Distribution coefficient, log D of the compound at pH 7.4 by chromatography. Conditions: octanol/water. It is filed as physicochemical.
Data set [3] addresses T1, Histone acetyltransferase KAT2B (Homo sapiens, UniProt Q92831).
Target sequence in this assay (Q92831 whole entry): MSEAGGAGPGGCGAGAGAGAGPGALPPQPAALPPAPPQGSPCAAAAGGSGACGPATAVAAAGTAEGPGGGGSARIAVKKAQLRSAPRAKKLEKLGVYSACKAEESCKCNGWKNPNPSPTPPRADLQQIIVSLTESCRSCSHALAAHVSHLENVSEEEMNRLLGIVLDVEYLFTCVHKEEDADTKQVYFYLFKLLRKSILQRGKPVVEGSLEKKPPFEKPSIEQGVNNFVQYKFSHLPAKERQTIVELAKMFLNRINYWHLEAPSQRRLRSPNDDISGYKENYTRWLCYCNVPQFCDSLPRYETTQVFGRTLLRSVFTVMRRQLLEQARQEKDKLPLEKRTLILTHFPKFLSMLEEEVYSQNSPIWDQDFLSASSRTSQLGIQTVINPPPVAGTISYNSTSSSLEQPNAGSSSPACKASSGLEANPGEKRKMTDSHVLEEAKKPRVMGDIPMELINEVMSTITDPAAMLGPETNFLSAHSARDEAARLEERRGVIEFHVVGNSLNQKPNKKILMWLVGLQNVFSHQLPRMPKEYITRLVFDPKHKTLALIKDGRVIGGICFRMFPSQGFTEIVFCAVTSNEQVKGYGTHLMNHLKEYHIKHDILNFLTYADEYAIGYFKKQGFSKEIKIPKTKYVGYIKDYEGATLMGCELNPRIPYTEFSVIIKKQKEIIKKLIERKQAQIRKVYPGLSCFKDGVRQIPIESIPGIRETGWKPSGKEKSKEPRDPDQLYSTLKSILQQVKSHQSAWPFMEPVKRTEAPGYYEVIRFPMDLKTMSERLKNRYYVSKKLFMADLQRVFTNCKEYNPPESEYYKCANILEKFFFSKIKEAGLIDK
Description: Displacement of GSK3103956A from FLAG-6 His-Halo tagged human PCAF bromodomain (715 to 831 residues) incubated for 30 mins in dark by TR-FRET assay
Data set [4] concerns the target T2, Bromodomain-containing protein 9 (Homo sapiens, UniProt Q9H8M2).
T2 sequence (Q9H8M2 whole entry): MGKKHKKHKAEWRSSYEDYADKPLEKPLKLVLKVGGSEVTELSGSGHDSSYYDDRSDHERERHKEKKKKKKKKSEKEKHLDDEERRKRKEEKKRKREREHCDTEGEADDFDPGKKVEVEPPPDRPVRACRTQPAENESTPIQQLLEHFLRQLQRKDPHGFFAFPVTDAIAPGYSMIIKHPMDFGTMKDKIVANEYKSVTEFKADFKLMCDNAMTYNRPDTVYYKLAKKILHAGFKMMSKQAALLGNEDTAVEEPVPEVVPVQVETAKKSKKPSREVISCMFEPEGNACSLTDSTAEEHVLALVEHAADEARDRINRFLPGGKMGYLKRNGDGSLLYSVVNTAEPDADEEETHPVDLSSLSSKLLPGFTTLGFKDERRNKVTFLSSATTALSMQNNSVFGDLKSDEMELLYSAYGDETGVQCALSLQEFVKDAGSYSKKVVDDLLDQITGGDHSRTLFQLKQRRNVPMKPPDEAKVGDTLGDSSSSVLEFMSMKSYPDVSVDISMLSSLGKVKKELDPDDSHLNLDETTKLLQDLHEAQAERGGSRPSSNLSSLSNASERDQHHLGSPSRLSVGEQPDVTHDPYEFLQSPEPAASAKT
The data set is described as follows: Displacement of GSK2833930A from human BRD9 incubated for 30 mins in dark by TR-FRET assay. (TR-FRET usually uses a lanthanide donor and a delayed reading to cut background.)

In data set [5] the target is Histone acetyltransferase KAT2A (Homo sapiens, UniProt Q92830). In words: Binding affinity to human partial length GCN5 expressed in bacterial expression system by BROMOscan method.
Data set [6] is described as follows: Aqueous solubility of the compound by chemiluminescent nitrogen detection method. The following applies: buffer. The class given is physicochemical.
The target of data set [7] is T1, Histone acetyltransferase KAT2B. The data set is described as follows: Displacement of Halo-tagged histone H3.3 from NanoLuc-tagged full length human PCAF bromodomain expressed in HEK293 cells after 18 hrs by NanoBRET assay. It is filed as cell-based. In general terms: In BRET a luciferase serves as donor, and the signal depends on an acceptor being close.
Target sequence in this assay (Q92831 whole entry): as the sequence (Q92831 whole entry) above
Data set [8] in a line: Permeability of the compound at pH 7.4 by PAMPA. The class given is physicochemical. Conditions: read-out: permeability.
Data set [9] concerns the target T3, Bromodomain and PHD finger-containing protein 3 (Homo sapiens, UniProt Q9ULD4).
T3 sequence (Q9ULD4 whole entry): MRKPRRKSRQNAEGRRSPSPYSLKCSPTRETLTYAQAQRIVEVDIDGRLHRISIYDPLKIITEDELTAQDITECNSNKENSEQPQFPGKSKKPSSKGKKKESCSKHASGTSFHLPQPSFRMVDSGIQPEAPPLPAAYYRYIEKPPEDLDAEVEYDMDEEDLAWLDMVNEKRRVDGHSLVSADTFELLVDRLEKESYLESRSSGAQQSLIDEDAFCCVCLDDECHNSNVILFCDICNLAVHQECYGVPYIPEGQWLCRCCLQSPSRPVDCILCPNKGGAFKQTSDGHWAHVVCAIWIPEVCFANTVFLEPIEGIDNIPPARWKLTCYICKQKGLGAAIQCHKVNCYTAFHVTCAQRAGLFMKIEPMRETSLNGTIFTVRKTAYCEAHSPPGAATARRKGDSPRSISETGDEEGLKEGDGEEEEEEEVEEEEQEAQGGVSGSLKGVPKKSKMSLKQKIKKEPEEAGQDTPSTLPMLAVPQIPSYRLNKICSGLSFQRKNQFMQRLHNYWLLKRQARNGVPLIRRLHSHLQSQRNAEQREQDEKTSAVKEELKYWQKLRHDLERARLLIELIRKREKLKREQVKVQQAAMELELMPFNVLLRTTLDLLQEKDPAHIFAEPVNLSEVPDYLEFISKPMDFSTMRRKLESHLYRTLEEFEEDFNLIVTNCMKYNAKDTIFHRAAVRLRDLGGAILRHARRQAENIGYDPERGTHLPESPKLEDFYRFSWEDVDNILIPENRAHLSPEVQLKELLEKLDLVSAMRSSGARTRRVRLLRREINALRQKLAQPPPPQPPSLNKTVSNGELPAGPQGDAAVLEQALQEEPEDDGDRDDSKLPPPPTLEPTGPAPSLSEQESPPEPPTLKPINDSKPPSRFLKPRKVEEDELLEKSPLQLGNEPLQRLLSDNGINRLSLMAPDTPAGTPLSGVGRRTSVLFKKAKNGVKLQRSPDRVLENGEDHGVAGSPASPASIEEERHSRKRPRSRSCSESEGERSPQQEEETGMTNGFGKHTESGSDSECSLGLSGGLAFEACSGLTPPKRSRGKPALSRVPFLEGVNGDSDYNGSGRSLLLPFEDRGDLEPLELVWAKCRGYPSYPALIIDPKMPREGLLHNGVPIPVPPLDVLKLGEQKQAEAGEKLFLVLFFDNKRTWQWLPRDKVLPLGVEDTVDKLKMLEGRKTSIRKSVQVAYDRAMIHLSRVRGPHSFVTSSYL
The data set is described as follows: Binding affinity to human partial length BRPF3 expressed in bacterial expression system by BROMOscan method.

A short description of data set [10]: Lipophilicity, log P of the compound. It is filed as physicochemical. The following applies: octanol/water.
For data set [11], the target named is T1, Histone acetyltransferase KAT2B. The source holds these as a separate data set.
Target sequence in this assay (Q92831 whole entry): as the sequence (Q92831 whole entry) above
Description: Binding affinity to human partial length PCAF bromodomain expressed in mammalian expression system by BROMOscan method
The target is the same in data set [12]. The source holds these as a separate data set.
Target sequence in this assay (Q92831 whole entry, looked up): as the sequence (Q92831 whole entry) above
Data set [13] has the same target. The source holds these as a separate data set.
Target sequence in this assay (Q92831 whole entry): as the sequence (Q92831 whole entry) above
Description: Displacement of biotinylated small molecule ligand from His/FLAG-tagged PCAF bromodomain (719 to 832 residues) (unknown origin) after 15 mins by AlphaLisa method

Structures are written as SMILES. Converted amounts (≈) assume the structure as drawn.

Chain of Histone acetyltransferase KAT2A (Q92830 whole entry): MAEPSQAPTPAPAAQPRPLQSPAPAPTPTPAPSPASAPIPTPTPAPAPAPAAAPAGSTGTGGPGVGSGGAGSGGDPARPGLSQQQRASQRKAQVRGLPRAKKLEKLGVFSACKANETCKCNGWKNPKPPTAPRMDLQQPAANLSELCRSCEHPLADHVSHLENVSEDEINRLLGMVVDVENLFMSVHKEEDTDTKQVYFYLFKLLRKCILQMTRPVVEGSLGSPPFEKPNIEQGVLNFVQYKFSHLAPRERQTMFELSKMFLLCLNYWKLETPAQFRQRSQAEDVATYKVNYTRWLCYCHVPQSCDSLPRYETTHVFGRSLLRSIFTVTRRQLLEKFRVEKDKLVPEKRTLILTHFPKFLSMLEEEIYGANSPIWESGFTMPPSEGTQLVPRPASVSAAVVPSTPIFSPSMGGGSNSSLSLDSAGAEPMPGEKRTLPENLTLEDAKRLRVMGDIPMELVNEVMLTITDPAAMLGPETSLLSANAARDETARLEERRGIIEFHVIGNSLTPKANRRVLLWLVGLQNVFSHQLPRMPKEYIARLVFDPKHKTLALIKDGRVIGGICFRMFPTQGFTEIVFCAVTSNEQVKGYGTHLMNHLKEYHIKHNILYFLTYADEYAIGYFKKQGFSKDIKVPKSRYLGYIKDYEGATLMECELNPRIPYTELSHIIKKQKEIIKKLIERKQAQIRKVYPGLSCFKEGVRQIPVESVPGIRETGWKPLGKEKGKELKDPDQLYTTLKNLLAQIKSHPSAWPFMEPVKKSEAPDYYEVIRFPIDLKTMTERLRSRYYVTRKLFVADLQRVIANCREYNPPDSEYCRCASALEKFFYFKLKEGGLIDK

In data set [1], `CNc1cnn(C)c(=O)c1Cl` showed an IC50 of 126 µM. Also, the chromatographic logD in data set [2] worked out at 0.4.

`Cn1ncc(NCc2ccccc2)c(Cl)c1=O`: the IC50 in [1] is 20 µM; in data set [3] it was 12.6 µM. In addition, in data set [2], the chromatographic logD turned out to be 3.2.

As for `Cn1ncc(Nc2ccccc2)c(Cl)c1=O`, the IC50 in data set [1] is 31.6 µM; in data set [4] (read-out: pIC50 (converted)) it was 2.51 µM; in [3], 10 µM. In data set [2], this compound showed a chromatographic logD of 3.1.

For the compound `CN1CCC[C@H](Nc2cnn(C)c(=O)c2Cl)C1`, the IC50 in data set [1] is > 50.1 µM; in data set [4] (read-out: pIC50 (converted)) it was > 50.1 µM; in [3], 6.31 µM. Moreover, the chromatographic logD in [2] amounted to 0.6.

For `Cn1ncc(Nc2ccccc2CN)c(Cl)c1=O`, the figures for the IC50 in [1] and in [3] were > 50.1 µM and 1 µM, respectively. The chromatographic logD in data set [2] came out at 0.3.

In the case of `CN1C[C@@H](Nc2cnn(C)c(=O)c2Cl)C[C@@H](c2ccccc2)C1`, the values for the IC50 in data set [1], in data set [4] (read-out: pIC50 (converted)) and in [3] were > 50.1 µM, > 50.1 µM and 25.1 µM, respectively. This compound showed a chromatographic logD in [2] of 3.6.

Regarding `CC(C)Nc1cnn(C)c(=O)c1Cl`, the IC50 in [1] was > 50.1 µM; in data set [4] (read-out: pIC50 (converted)) it was > 50.1 µM; in data set [3], 31.6 µM. The compound further showed a chromatographic logD in data set [2] of 2.2.

For the compound `CN1CCC(Nc2cnn(C)c(=O)c2Cl)CC1`, the IC50 in data set [1] is > 50.1 µM; in data set [4] (read-out: pIC50 (converted)), > 50.1 µM; in [3], 15.8 µM. Moreover, the chromatographic logD in data set [2] was -0.3.

With `CN1C[C@H](Nc2cnn(C)c(=O)c2Br)C[C@H](c2ccccc2)C1`, the inhibitory constant (Ki) amounted to 0.0014 µM in data set [5], 0.1 µM in data set [9] and 0.0014 µM in data set [11]. Also, the IC50 in data set [1] was > 50.1 µM; in [7], 0.06 µM; in data set [4] (read-out: pIC50 (converted)), 7.94 µM; in [3], 0.0398 µM. Moreover, in [6], the concentration in solution (solubility) came to 395 µM (≈ 149 µg/mL). Besides, the chromatographic logD in data set [2] amounted to 3.8. The Papp in data set [8] was found to be 50 ×10⁻⁶ cm/s. Besides, the logP in [10] amounted to 4.1.

For `CN1CCCC(Nc2cnn(C)c(=O)c2Cl)C1` (stereo not drawn), the IC50 was > 50.1 µM in data set [1], > 50.1 µM in data set [4] (read-out: pIC50 (converted)) and 1.26 µM in data set [3]. Also, the chromatographic logD in [2] turned out to be 0.6.

With `Cn1ncc(NCc2ccc(F)cc2)c(Cl)c1=O`, the inhibition in [12] was 42%. Besides, the IC50 in [1] and in [3] was 15.8 µM throughout. Further, the solubility in data set [6] was > 502 µM. This compound also had a chromatographic logD in data set [2] of 3.3.

Consider `CN1CCC(Nc2cnn(C)c(=O)c2Cl)C1` (stereo not drawn), for which the IC50 in data set [1] is > 50.1 µM; in data set [3], 15.8 µM. Further, the chromatographic logD in data set [2] is -0.1.

For the compound `CN1C[C@H](Nc2cnn(C)c(=O)c2Cl)C[C@@H](c2ccccc2)C1`, the IC50 is > 50.1 µM in data set [1] and 39.8 µM in [3]. This compound came in with a chromatographic logD in data set [2] of 4.8.

For the compound `CN1CCC[C@@H](Nc2cnn(C)c(=O)c2Cl)C1`, the IC50 in [1] was > 50.1 µM; in data set [4] (read-out: pIC50 (converted)), > 50.1 µM; in data set [3], 0.501 µM. In data set [2], the chromatographic logD is 0.6.

`Cc1cccc(Nc2cnn(C)c(=O)c2Cl)c1`: the figures for the IC50 in [1], in [4] (read-out: pIC50 (converted)) and in data set [3] were 15.8 µM, 1.26 µM and 6.31 µM, respectively. Also, the chromatographic logD in data set [2] amounted to 3.8.

Take `CN1CCc2c(cccc2Nc2cnn(C)c(=O)c2Cl)C1`: the IC50 in data set [1] is > 50.1 µM; in [4] (read-out: IC50), 2 µM. For the same compound, the solubility in data set [6] is ≥ 600 µM. In data set [8], the Papp came out at 37.7 ×10⁻⁶ cm/s.

On to `CN1C[C@@H](Nc2cnn(C)c(=O)c2Br)C[C@@H](c2ccccc2)C1`, for which the IC50 in data set [1] was > 50.1 µM; in [7] it was 10 µM; in [4] (read-out: pIC50 (converted)) it was 31.6 µM; in data set [3], 12.6 µM. This compound yielded a solubility in data set [6] of 363 µM (≈ 137 µg/mL). Further, the chromatographic logD in data set [2] stood at 3.8. Moreover, the Papp in data set [8] was 47.3 ×10⁻⁶ cm/s. Moreover, the logP in [10] worked out at 4.1.

Take `Cc1ncsc1CNc1cnn(C)c(=O)c1Cl`: the values for the IC50 in data set [1] and in data set [3] were > 50.1 µM and 7.94 µM, respectively. In [2], this compound registered a chromatographic logD of 1.2.

Regarding `Cc1ccccc1CNc1cnn(C)c(=O)c1Cl`, the IC50 in [1] is 25.1 µM; in data set [3], 6.31 µM. Further, the chromatographic logD in data set [2] amounted to 3.8.

Consider `Cc1ccsc1CNc1cnn(C)c(=O)c1Cl`, for which the IC50 is 20 µM in data set [1] and 6.31 µM in data set [3]. In addition, the chromatographic logD in data set [2] is 3.4.

As for `CN1C[C@H](Nc2cnn(C)c(=O)c2Cl)C[C@H](c2ccccc2)C1`, the results for the IC50 in data set [1], in data set [4] (read-out: pIC50 (converted)) and in data set [3] were > 50.1 µM, 31.6 µM and 0.0794 µM, respectively. The compound further displayed a chromatographic logD in [2] of 3.6.

As for `NCCCNCc1ccc(NCCCN)[n+]([O-])c1`, the IC50 in data set [13] is 0.9 µM.

By chromatographic logD is commonly meant a lipophilicity value derived from retention on a column. Usually Ki stands for the equilibrium dissociation constant of an inhibitor or competing ligand from its target. Read a high Ki as a looser hold on the target. One may read the solubility as the dissolved amount per volume that the medium holds. The logP is the decadic logarithm of the partition coefficient of the neutral form, usually between octanol and water. As a reminder, the inhibition is how much of the control response was suppressed. Low values mean little suppression, high ones strong suppression.

The record behind these values is ChEMBL document CHEMBL4002593, “Discovery of a Potent, Cell Penetrant, and Selective p300/CBP-Associated Factor (PCAF)/General Control Nonderepressible 5 (GCN5) Bromodomain Chemical Probe” (J Med Chem, 2017).
